Assay results published in article PMC5241706, “Biochemical and Structural Characterization of Selective Allosteric Inhibitors of the Plasmodium falciparum Drug Target, Prolyl-tRNA-synthetase” (ACS Infectious Diseases, 2016).
Read-outs that look alike come from different tables or passages of the source.

How the values were obtained:
PfProRS [1] = molecular target: T1, PfProRS (Plasmodium falciparum, UniProt Q8I5R7); assay: biochemical; type: biochemical; conditions: for IC50: read-out: Pf ProRS IC50
T1 construct: B2, AA7–746 (minus 6 amino acids, or 99% of the ORF); made in house; host or cells: E. coli BL21(DE3)R3 Rosetta Oxford
T1 sequence (Q8I5R7 7-746): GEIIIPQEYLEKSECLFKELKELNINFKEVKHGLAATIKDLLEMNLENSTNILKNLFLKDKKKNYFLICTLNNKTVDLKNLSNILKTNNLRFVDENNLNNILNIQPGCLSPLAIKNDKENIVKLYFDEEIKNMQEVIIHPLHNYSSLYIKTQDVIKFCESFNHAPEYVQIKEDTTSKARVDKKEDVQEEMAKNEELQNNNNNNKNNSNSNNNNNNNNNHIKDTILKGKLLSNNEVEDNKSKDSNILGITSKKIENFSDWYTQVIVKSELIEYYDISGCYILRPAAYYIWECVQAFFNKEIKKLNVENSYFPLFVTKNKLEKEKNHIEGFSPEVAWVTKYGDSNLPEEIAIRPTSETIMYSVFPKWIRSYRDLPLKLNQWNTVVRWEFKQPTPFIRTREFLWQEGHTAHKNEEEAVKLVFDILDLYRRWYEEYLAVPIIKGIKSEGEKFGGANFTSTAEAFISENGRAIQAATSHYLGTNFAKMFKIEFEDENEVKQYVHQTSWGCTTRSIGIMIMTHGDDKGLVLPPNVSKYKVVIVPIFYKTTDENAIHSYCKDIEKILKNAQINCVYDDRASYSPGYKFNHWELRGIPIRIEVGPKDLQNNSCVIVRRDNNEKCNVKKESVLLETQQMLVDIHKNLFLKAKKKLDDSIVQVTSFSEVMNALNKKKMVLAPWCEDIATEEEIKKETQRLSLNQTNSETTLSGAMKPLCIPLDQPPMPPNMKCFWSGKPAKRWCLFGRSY

[2] = test system: Plasmodium falciparum strain 3D7; assay: Plasmodium falciparum growth inhibition, SYBR green fluorescence; type: cell-based
PfProRS [3] = molecular target: T1, PfProRS; assay: luciferase ATP depletion assay, HTS format; type: biochemical; conditions: read-out: Percentage inhibition Pf ProRS
HsProRS = molecular target: T2, HsProRS (Homo sapiens, UniProt P07814); assay: luciferase ATP depletion assay, counter-screen; type: biochemical; conditions: read-out: Percentage inhibition Hs ProRS
T2 construct: made in house
T2 sequence (P07814 1007-1512 limits assumed): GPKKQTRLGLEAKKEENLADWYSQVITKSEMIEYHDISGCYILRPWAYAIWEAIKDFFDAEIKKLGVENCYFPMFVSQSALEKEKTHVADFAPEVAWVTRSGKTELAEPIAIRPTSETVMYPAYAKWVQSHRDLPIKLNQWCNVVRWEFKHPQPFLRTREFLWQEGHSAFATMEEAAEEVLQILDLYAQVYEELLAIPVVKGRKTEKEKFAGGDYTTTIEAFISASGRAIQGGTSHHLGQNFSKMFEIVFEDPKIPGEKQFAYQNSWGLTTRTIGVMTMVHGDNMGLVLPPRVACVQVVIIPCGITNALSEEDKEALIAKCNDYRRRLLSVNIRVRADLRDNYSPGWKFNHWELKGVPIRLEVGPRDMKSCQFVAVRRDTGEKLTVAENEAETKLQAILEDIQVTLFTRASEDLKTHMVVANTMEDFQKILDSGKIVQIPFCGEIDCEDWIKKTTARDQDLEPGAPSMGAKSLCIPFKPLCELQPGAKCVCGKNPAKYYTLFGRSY

[4] = 3D7, growth inhibition, read-out: Pf (3D7) EC50

## Cn1nc(C(F)(F)F)c(-c2ccc(F)cc2)c1N [Compound 2]
PfProRS [1]; SAR text to Table 1
  PfProRS activity in words: inactive
PfProRS [1]
  IC50: > 50000 nM
[2]; [4]
  EC50: 5000 nM

## Cn1nc(C(F)(F)F)c(-c2ccc(F)cc2)c1NC(=O)Nc1ccc(F)cc1F [Compound 3]
PfProRS [1]
  IC50: 2500 nM
[2]; [4]
  EC50: 700 nM

## Cn1nc(C(F)(F)F)c(-c2ccc(F)cc2)c1NC(=O)Nc1cccc(F)c1 [Compound 4]
PfProRS [1]
  IC50: 8000 nM
[2]; [4]
  EC50: 350 nM

## Cn1nc(C(F)(F)F)c(-c2ccccc2CCO)c1NC(=O)Nc1ccc(F)cc1 [Compound 14]
PfProRS [1]
  IC50: > 50000 nM

## CCn1nc(-c2ccc(C(=O)OC)cc2)nc2c(=O)n(C)c(=O)nc1-2 [MMV306025]
PfProRS [3]
  inhibition at 0.03 µM: -0.55%
  inhibition at 0.06 µM: -0.04%
  inhibition at 0.12 µM: 0.62%
  inhibition at 0.23 µM: 4.5%
  inhibition at 0.47 µM: 21.8%
  inhibition at 0.94 µM: 28.4%
  inhibition at 1.88 µM: 30%
  inhibition at 2.5 µM: 72.8%
HsProRS; at 0.03 μM (MMV306025 series)
  inhibition at 0.03 µM: 0.3%
HsProRS; at 0.06 μM
  inhibition at 0.06 µM: -0.07%
HsProRS; at 0.12 μM (MMV306025 series)
  inhibition at 0.12 µM: 0.1%
HsProRS; at 0.23 μM
  inhibition at 0.23 µM: 0.67%
HsProRS; at 0.47 μM
  inhibition at 0.47 µM: 4.1%
HsProRS; at 0.94 μM
  inhibition at 0.94 µM: 14.9%
HsProRS; at 1.88 μM
  inhibition at 1.88 µM: 21.6%

## OC(c1cc(C(F)(F)F)nc2c(C(F)(F)F)cccc12)C1CCCCN1 (stereo not drawn) [Mefloquine, reference compound]
[2]; P. falciparum 3D7, read-out: potency range (drug control)
  EC50: 30 to 60 nM

## Cc1ccc(-c2oc(N)c(C#N)c2-c2ccc(C)cc2)cc1 [SJ000368256]
PfProRS [3]
  inhibition at 0.12 µM: -0.29%
  inhibition at 0.37 µM: -0.09%
  inhibition at 1.46 µM: -0.33%
  inhibition at 3.33 µM: 0.44%
  inhibition at 10 µM: 0.96%
  inhibition at 30 µM: 39.7%
HsProRS; at 0.12 μM (30 μM series)
  inhibition at 0.12 µM: -0.1%
HsProRS; at 0.37 μM
  inhibition at 0.37 µM: 0.01%
HsProRS; at 1.46 μM (30 μM series)
  inhibition at 1.46 µM: -0.15%
HsProRS; at 3.33 μM
  inhibition at 3.33 µM: 0.06%
HsProRS; at 10.00 μM
  inhibition at 10 µM: 0.08%
HsProRS; at 30.00 μM
  inhibition at 30 µM: 0.41%
